ChEMBL document CHEMBL1138860, “Design, synthesis, and evaluation of a potent, cell-permeable, conformationally constrained second mitochondria derived activator of caspase (Smac) mimetic” (J Med Chem, 2006)

Columns and labels:
MDA-MB-231 [1] = test: Induction of cell death in MDA-MB-231 by Trypan blue exclusion assay at 100 nM after 4 days; type: functional, Homo sapiens
MDA-MB-231 [2] = test: Inhibition of MDA-MB-231 cell growth by WST assay; type: functional, cell-based; conditions: Homo sapiens
MDA-MB-231 [3] = test: Induction of cell death in MDA-MB-231 by Trypan blue exclusion assay at 1 uM 4 days; type: functional, Homo sapiens

IC50 (MDA-MB-231 [2]) | Compound | Activity (MDA-MB-231 [1]) | Activity (MDA-MB-231 [3])
3 µM | CC[C@@H](C(=O)N[C@H]1CCC[C@H]2CC[C@@H](C(=O)NC(c3ccccc3)c3ccccc3)N2C1=O)N(C)C |  | 
65 µM | C[C@H](O)C(=O)N[C@H]1CCC[C@H]2CC[C@@H](C(=O)NC(c3ccccc3)c3ccccc3)N2C1=O |  | 
50 µM | CC[C@H](N)C(=O)N[C@H]1CCC[C@H]2CC[C@@H](C(=O)NC(c3ccccc3)c3ccccc3)N2C1=O |  | 

Compound | IC50 (MDA-MB-231 [2]) | Activity (MDA-MB-231 [1]) | Activity (MDA-MB-231 [3])
CC[C@H](NC)C(=O)N[C@H]1CCC[C@H]2CC[C@@H](C(=O)NC(c3ccccc3)c3ccccc3)N2C1=O | 0.1 µM | 40% | 80%
